{"source": "patent US20060045910A1", "about": "“Preserved fusogenic vesicles” (priority 2004, published 2006)", "tested_on": "rat cardiomyocyte cells", "test": "Uptake of ATP by rat cardiomyocyte cells (FIG. 5)", "format": "cell-based", "from_the_text": "While not wishing to be bound by any specific theory, it is currently believed that the dehydration of the vesicles that occurs during freeze-drying causes more ATP to enter the fusogenic vesicles. In this manner, the preserved and re-hydrated fusogenic vesicles may contain a higher concentration of ATP than their unpreserved counterparts.", "data": [{"smiles": "Nc1ncnc2c1ncn2[C@@H]1O[C@H](COP(=O)(O)OP(=O)(O)OP(=O)(O)O)[C@@H](O)[C@H]1O", "note": "[unencapsulated ATP, adenosine triphosphate]", "values": [{"measurement": "uptake of ATP by cells", "result": "barely absorbed"}]}]}
